Experimental data: patent publication US20240132484A1, “BROAD SPECTRUM ANTIVIRAL COMPOUNDS TARGETING THE SKI COMPLEX” (priority 2020, published 2024)
“And” between values parts separate entries of the source, which are not always exact repeats. Equal entries are not always repeated. Where two headings read alike, the source gives them in different places.

What was measured:
SARS2 = assay type: cell-based, SARS-CoV-2; settings: for Percentage Infection Relative to Appropriate DMSO Control with Avg Background Subtraction: Nunc Celigo plates; for Percentage Inhibition Average 1 μM / Screening data (Relative infection to DMSO controls) Average 1 μM: SARS2, 1 μM; for Screening data (Relative infection to DMSO controls) Average 1 μM / Screening data (Relative infection to DMSO controls) Average 5 μM / Screening data (Relative infection to DMSO controls) Average 10 μM / Screening data (Relative infection to DMSO controls) Average 25 μM / Screening data (Relative infection to DMSO controls) Average 50 μM / Average (relative infection to DMSO over the 5 tested concentrations): 100=DMSO control; for Percentage Inhibition Average 5 μM / Screening data (Relative infection to DMSO controls) Average 5 μM: SARS2, 5 μM; for Percentage Inhibition Average 10 μM / Screening data (Relative infection to DMSO controls) Average 10 μM: SARS2, 10 μM; for Percentage Inhibition Average 25 μM / Screening data (Relative infection to DMSO controls) Average 25 μM: SARS2, 25 μM; for Percentage Inhibition Average 50 μM / Screening data (Relative infection to DMSO controls) Average 50 μM: SARS2, 50 μM; for Average (relative infection to DMSO over the 5 tested concentrations): SARS2, average over 1 to 50 uM; for Infection Data, Average, Mean: average of Exp 1-2 (SMW491, SMW492); for Infection Data, Average, Mean percentage infection relative to DMSO control: Average of Exp 1 (SMW491) and Exp 2 (SMW492); for Infection Data, Percentage Infection Relative to Appropriate DMSO Control: single well, avg background subtraction
cells (nuclei count) = settings: for Relative cell count to DMSO controls, Average 1 μM / Relative cell count to DMSO controls, Average 5 μM / Relative cell count to DMSO controls, Average 10 μM / Relative cell count to DMSO controls, Average 25 μM / Relative cell count to DMSO controls, Average 50 μM: toxicity data, 100=DMSO control; for Toxicity Data, Average, Mean percentage relative to DMSO control: Average of Exp 1 (SMW491) and Exp 2 (SMW492); for Relative cell count to DMSO controls, Average (for correlation analysis): average value over the 5 tested concentrations (1 to 50 uM); for Toxicity Data, Percentage Relative to Appropriate DMSO Control: single well

In the case of `CCN(CC)CCN(Cc1ccccn1)C(=O)c1cccs1` [SILCS37], the “Percentage Infection Relative to Appropriate DMSO Control with Avg Background Subtraction” value (SARS2; Exp 1 (SMW491), 1 uM) is reported as 88.98% and 80.18%, the “Percentage Infection Relative to Appropriate DMSO Control with Avg Background Subtraction” value (SARS2; Exp 1 (SMW491), 5 uM) is reported as 95.46% and 97.68% and the “Percentage Infection Relative to Appropriate DMSO Control with Avg Background Subtraction” value (SARS2; Exp 1 (SMW491), 10 uM) is reported as 109.85% and 92.25%. For the same molecule, the “Percentage Infection Relative to Appropriate DMSO Control with Avg Background Subtraction” value (SARS2; Exp 1 (SMW491), 25 uM) was 117.51% and 105.36%, the “Percentage Infection Relative to Appropriate DMSO Control with Avg Background Subtraction” value (SARS2; Exp 1 (SMW491), 50 uM) was 136.02% and 127.57% and the “Percentage Infection Relative to Appropriate DMSO Control with Avg Background Subtraction” value (SARS2; Exp 2 (SMW492), 1 uM) was 80.82% and 84.84%. The “Percentage Infection Relative to Appropriate DMSO Control with Avg Background Subtraction” value (SARS2; Exp 2 (SMW492), 5 uM) was 71.36% and 74.06%, the “Percentage Infection Relative to Appropriate DMSO Control with Avg Background Subtraction” value (SARS2; Exp 2 (SMW492), 25 uM) was 121.75% and 63.91% and the “Percentage Infection Relative to Appropriate DMSO Control with Avg Background Subtraction” value (SARS2; Exp 2 (SMW492), 50 uM) was 88.75% and 46.65%. For the same molecule, the “Percentage Inhibition Average 1 μM” value (SARS2) was 16.29%, the “Screening data (Relative infection to DMSO controls) Average 1 μM” value (SARS2) was 83.71 and the “Percentage Inhibition Average 5 μM” value (SARS2) was 15.36%. The “Screening data (Relative infection to DMSO controls) Average 5 μM” value (SARS2) was 84.64, the “Percentage Inhibition Average 10 μM” value (SARS2) was 23.94% and the “Screening data (Relative infection to DMSO controls) Average 10 μM” value (SARS2) was 76.06. The “Percentage Inhibition Average 25 μM” value (SARS2) was −2.13%, the “Screening data (Relative infection to DMSO controls) Average 25 μM” value (SARS2) was 102.13 and the “Percentage Inhibition Average 50 μM” value (SARS2) was 0.25%. For the same molecule, the “Screening data (Relative infection to DMSO controls) Average 50 μM” value (SARS2) was 99.75, the “Average (relative infection to DMSO over the 5 tested concentrations)” value (SARS2) was 89.26 and the “Infection Data, Average, Mean” value (SARS2; n 4, 1 uM) was 83.71%. For the same molecule, the “Infection Data, Average, Mean” value (SARS2; n 4, 5 uM) was 84.64%, the “Infection Data, Average, Mean” value (SARS2; n 4, 10 uM) was 76.06% and the “Infection Data, Average, Mean” value (SARS2; n 4, 25 uM) was 102.13%. The “Infection Data, Average, Mean” value (SARS2; n 4, 50 uM) was 99.75%, the “Relative cell count to DMSO controls, Average 1 μM” value (cells (nuclei count)) was 108.95 and the “Relative cell count to DMSO controls, Average 5 μM” value (cells (nuclei count)) was 110.16. The “Relative cell count to DMSO controls, Average 10 μM” value (cells (nuclei count)) was 116.31, the “Relative cell count to DMSO controls, Average 25 μM” value (cells (nuclei count)) was 104.07 and the “Relative cell count to DMSO controls, Average 50 μM” value (cells (nuclei count)) was 75.29. The “Toxicity Data, Average, Mean percentage relative to DMSO control” value (cells (nuclei count); n=4, 1 uM) was 108.95%, the “Toxicity Data, Average, Mean percentage relative to DMSO control” value (cells (nuclei count); n=4, 5 uM) was 110.16% and the “Toxicity Data, Average, Mean percentage relative to DMSO control” value (cells (nuclei count); n=4, 10 uM) was 116.31%. For the same molecule, the “Toxicity Data, Average, Mean percentage relative to DMSO control” value (cells (nuclei count); n=4, 25 uM) was 104.07%, the “Toxicity Data, Average, Mean percentage relative to DMSO control” value (cells (nuclei count); n=4, 50 uM) was 75.29% and the “Relative cell count to DMSO controls, Average (for correlation analysis)” value (cells (nuclei count)) was 102.96.

In the case of `COc1ccc(CNCCc2ccccc2F)c(OCC(O)CN2CCN(C)CC2)c1` (stereo not drawn) [SILCS46], the “SARS2 antiviral activity” value (SARS2) is reported as “lower activity”, the “Infection Data, Average, Mean percentage infection relative to DMSO control” value (SARS2; n=4, 1 uM) is reported as 72.12% and the “Infection Data, Average, Mean percentage infection relative to DMSO control” value (SARS2; n=4, 5 uM) is reported as 0.77%. The “Infection Data, Average, Mean percentage infection relative to DMSO control” value (SARS2; n=4, 10 uM) was 21.64%, the “Infection Data, Average, Mean percentage infection relative to DMSO control” value (SARS2; n=4, 25 uM) was 0.03% and the “Infection Data, Average, Mean percentage infection relative to DMSO control” value (SARS2; n=4, 50 uM) was 0.84%. For the same molecule, the “Infection Data, Percentage Infection Relative to Appropriate DMSO Control” value (SARS2; Exp 1 (SMW491), 1 uM) was 73.61% and 132.86%, the “Infection Data, Percentage Infection Relative to Appropriate DMSO Control” value (SARS2; Exp 1 (SMW491), 5 uM) was −0.70% and 0.86% and the “Infection Data, Percentage Infection Relative to Appropriate DMSO Control” value (SARS2; Exp 1 (SMW491), 10 uM) was −2.65% and −0.77%. For the same molecule, the “Infection Data, Percentage Infection Relative to Appropriate DMSO Control” value (SARS2; Exp 1 (SMW491), 25 uM) was −3.35% and 0.11%, the “Infection Data, Percentage Infection Relative to Appropriate DMSO Control” value (SARS2; Exp 1 (SMW491), 50 uM) was 2.55% and −4.15% and the “Infection Data, Percentage Infection Relative to Appropriate DMSO Control” value (SARS2; Exp 2 (SMW492), 1 uM) was 49.01% and 32.97%. The “Infection Data, Percentage Infection Relative to Appropriate DMSO Control” value (SARS2; Exp 2 (SMW492), 5 uM) was 0.99% and 1.92%, the “Infection Data, Percentage Infection Relative to Appropriate DMSO Control” value (SARS2; Exp 2 (SMW492), 10 uM) was 47.59% and 42.39% and the “Infection Data, Percentage Infection Relative to Appropriate DMSO Control” value (SARS2; Exp 2 (SMW492), 25 uM) was 0.98% and 2.39%. The “Infection Data, Percentage Infection Relative to Appropriate DMSO Control” value (SARS2; Exp 2 (SMW492), 50 uM) was 3.90% and 1.08%, the “Percentage Inhibition Average 1 μM” value (SARS2) was 27.88% and the “Screening data (Relative infection to DMSO controls) Average 1 μM” value (SARS2) was 72.12. The “Percentage Inhibition Average 5 μM” value (SARS2) was 99.23%, the “Screening data (Relative infection to DMSO controls) Average 5 μM” value (SARS2) was 0.77 and the “Percentage Inhibition Average 10 μM” value (SARS2) was 78.36%. For the same molecule, the “Screening data (Relative infection to DMSO controls) Average 10 μM” value (SARS2) was 21.64, the “Percentage Inhibition Average 25 μM” value (SARS2) was 99.97% and the “Screening data (Relative infection to DMSO controls) Average 25 μM” value (SARS2) was 0.03. For the same molecule, the “Percentage Inhibition Average 50 μM” value (SARS2) was 99.16%, the “Screening data (Relative infection to DMSO controls) Average 50 μM” value (SARS2) was 0.84 and the “Average (relative infection to DMSO over the 5 tested concentrations)” value (SARS2) was 19.08. The “Relative cell count to DMSO controls, Average 1 μM” value (cells (nuclei count)) was 103.33, the “Relative cell count to DMSO controls, Average 5 μM” value (cells (nuclei count)) was 131.17 and the “Relative cell count to DMSO controls, Average 10 μM” value (cells (nuclei count)) was 126.44. For the same molecule, the “Relative cell count to DMSO controls, Average 25 μM” value (cells (nuclei count)) was 117.77, the “Relative cell count to DMSO controls, Average 50 μM” value (cells (nuclei count)) was 107.72 and the “Toxicity Data, Average, Mean percentage relative to DMSO control” value (cells (nuclei count); n=4, 1 uM) was 103.33%. For the same molecule, the “Toxicity Data, Average, Mean percentage relative to DMSO control” value (cells (nuclei count); n=4, 5 uM) was 131.17%, the “Toxicity Data, Average, Mean percentage relative to DMSO control” value (cells (nuclei count); n=4, 10 uM) was 126.44% and the “Toxicity Data, Average, Mean percentage relative to DMSO control” value (cells (nuclei count); n=4, 25 uM) was 117.77%. For the same molecule, the “Toxicity Data, Average, Mean percentage relative to DMSO control” value (cells (nuclei count); n=4, 50 uM) was 107.72%, the “Toxicity Data, Percentage Relative to Appropriate DMSO Control” value (cells (nuclei count); Exp 1 (SMW491), 1 uM) was 87% and 86% and the “Toxicity Data, Percentage Relative to Appropriate DMSO Control” value (cells (nuclei count); Exp 1 (SMW491), 5 uM) was 124% and 137%. The “Toxicity Data, Percentage Relative to Appropriate DMSO Control” value (cells (nuclei count); Exp 1 (SMW491), 10 uM) was 126% and 116%, the “Toxicity Data, Percentage Relative to Appropriate DMSO Control” value (cells (nuclei count); Exp 1 (SMW491), 25 uM) was 118% and 101% and the “Toxicity Data, Percentage Relative to Appropriate DMSO Control” value (cells (nuclei count); Exp 1 (SMW491), 50 uM) was 84% and 108%. The “Toxicity Data, Percentage Relative to Appropriate DMSO Control” value (cells (nuclei count); Exp 2 (SMW492), 1 uM) was 100% and 140%, the “Toxicity Data, Percentage Relative to Appropriate DMSO Control” value (cells (nuclei count); Exp 2 (SMW492), 5 uM) was 120% and 143% and the “Toxicity Data, Percentage Relative to Appropriate DMSO Control” value (cells (nuclei count); Exp 2 (SMW492), 10 uM) was 134% and 130%. The “Toxicity Data, Percentage Relative to Appropriate DMSO Control” value (cells (nuclei count); Exp 2 (SMW492), 25 uM) was 117% and 135%, the “Toxicity Data, Percentage Relative to Appropriate DMSO Control” value (cells (nuclei count); Exp 2 (SMW492), 50 uM) was 118% and 121% and the “Relative cell count to DMSO controls, Average (for correlation analysis)” value (cells (nuclei count)) was 117.29.
